According to article PMC7126728 (Bioorganic & Medicinal Chemistry, 2015):

Key:
VZV = format: cell-based, varicella zoster virus; conditions: HEL cell cultures
HCMV = format: cell-based, human cytomegalovirus; conditions: HEL cell cultures

O=C(Cn1c(=O)ccn(CCCCCOc2ccccc2)c1=O)Nc1ccc(Oc2ccccc2)cc1 [Compound 7a, 2-[2,6-Dioxo-3-(5-phenoxypentyl)-3,6-dihydropyrimidin-1(2H)-yl]-N-(4-phenoxyphenyl)acetamide]
anti-VZV activity (in words) (VZV): inactive

O=C(Cn1c(=O)c(I)cn(CCCCCOc2ccc(Br)cc2)c1=O)Nc1ccc(Oc2ccccc2)cc1 [Compound 7j, 2-[3-[5-(4-Bromophenoxy)pentyl]-5-iodo-2,6-dioxo-3,6-dihydropyrimidin-1(2H)-yl]-N-(4-phenoxyphenyl)acetamide]
anti-VZV activity (in words) (VZV): completely inactive | anti-HCMV activity (in words) (HCMV): completely inactive

O=C(Cn1c(=O)ccn(CCCCCCc2ccccc2)c1=O)Nc1ccc(Oc2ccccc2)cc1 [Compound 13, 2-[2,6-Dioxo-3-(6-phenylhexyl)-3,6-dihydropyrimidin-1(2H)-yl]-N-(4-phenoxyphenyl)acetamide]
anti-VZV activity (in words) (VZV): loss of activity | anti-HCMV activity (in words) (HCMV): loss of activity

O=C(Cn1c(=O)ccn(CCCCOCc2ccc(Br)cc2)c1=O)Nc1ccc(Oc2ccccc2)cc1 [Compound 17, 2-[3-[4-(4-Bromobenzyloxy)butyl]-2,6-dioxo-3,6-dihydropyrimidin-1(2H)-yl]-N-(4-phenoxyphenyl)acetamide]
anti-VZV activity (in words) (VZV): loss of activity

O=C(Cn1c(=O)ccn(COCCOCc2ccc(Br)cc2)c1=O)Nc1ccc(Oc2ccccc2)cc1 [Compound 20, 2-[3-[[2-(4-Bromobenzyloxy)ethoxy]methyl]-2,6-dioxo-3,6-dihydropyrimidin-1(2H)-yl]-N-(4-phenoxyphenyl)acetamide]
anti-VZV activity (in words) (VZV): loss of activity | anti-HCMV activity (in words) (HCMV): completely inactive

O=C(Cn1c(=O)ccn(Cc2ccc(Oc3ccc(Br)cc3)cc2)c1=O)Nc1ccc(Oc2ccccc2)cc1 [Compound 23, 2-[3-[4-(4-Bromophenoxy)benzyl]-2,6-dioxo-3,6-dihydropyrimidin-1(2H)-yl]-N-(4-phenoxyphenyl)acetamide]
anti-VZV activity (in words) (VZV): loss of activity
